The structures appear in SMILES notation.

The target of the assay is Early growth response protein 1 (Homo sapiens) (UniProt P18146). Kind of assay: altered EGR1 protein amount, DLD-1 – DLD1 cells, chemiluminescent western blot, powder samples, counter-screen for KLF5 inhibitor project, late-stage follow-up (AID 588618). The conditions noted are these: DLD-1 cells, 24 h, at 10 µM, stronger effect = higher value.
Chain of Early growth response protein 1 (Homo sapiens) (P18146 whole entry, looked up): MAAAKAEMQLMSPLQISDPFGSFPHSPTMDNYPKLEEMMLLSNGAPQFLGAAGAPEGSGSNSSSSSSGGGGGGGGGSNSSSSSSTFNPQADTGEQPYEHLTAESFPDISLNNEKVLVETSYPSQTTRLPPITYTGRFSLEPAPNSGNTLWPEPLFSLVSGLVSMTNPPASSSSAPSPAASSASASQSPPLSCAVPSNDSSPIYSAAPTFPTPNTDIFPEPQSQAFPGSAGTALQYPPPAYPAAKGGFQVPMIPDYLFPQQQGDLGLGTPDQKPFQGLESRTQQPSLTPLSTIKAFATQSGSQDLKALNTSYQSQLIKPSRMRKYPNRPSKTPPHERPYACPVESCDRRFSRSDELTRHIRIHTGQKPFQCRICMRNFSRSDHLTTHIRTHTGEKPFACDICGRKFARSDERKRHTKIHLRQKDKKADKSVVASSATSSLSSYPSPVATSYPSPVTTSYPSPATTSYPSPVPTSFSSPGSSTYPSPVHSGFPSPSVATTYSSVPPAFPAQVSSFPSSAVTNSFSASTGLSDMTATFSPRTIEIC

For `CN(C(=O)CNC(=O)/C=C/c1cccc(Cl)c1)C1CCS(=O)(=O)C1` (stereo not drawn), the inhibition – broadly, the relative decrease from the control value, in per cent – was 14.3%.

Turning to `CN(C(=O)COC(=O)/C=C/c1cccc([N+](=O)[O-])c1)C1CCS(=O)(=O)C1` (stereo not drawn), the inhibition is 19.4%.

`CN(C(=O)CNC(=O)/C=C/c1cccc(Cl)c1)C1CCS(=O)(=O)CC1`: the inhibition was 21.1%.

The values are drawn from PubChem BioAssay AID588618 (The Scripps Research Institute Molecular Screening Center, 2011).
